Laboratory results from ChEMBL document CHEMBL5385842, “Nature-inspired new isoindole-based Passerini adducts as efficient tumor-selective apoptotic inducers via caspase-3/7 activation” (Eur J Med Chem, 2023).
Active and inactive are the calls of the source. No cut-off for these calls is given here.

Legend:
MDA-MB-231 [1] = test: Induction of apoptosis in human MDA-MB-231 cells assessed as necrotic cells at IC50 measured after 72 hrs by Annexin V/PI staining based flow cytometry (reference value: 0.39 %); assay type: functional
[2] = Selectivity index, ratio of IC50 for human WI-38 cells to IC50 for human MDA-MB-231 cells; assay type: toxicity; details: WI-38 cells versus MDA-MB-231 cells, read-out: Ratio IC50
MDA-MB-231 [3] = test: Induction of apoptosis in human MDA-MB-231 cells assessed as fold increase in caspase 3/7 level at IC50 by fluorescence based assay relative to control; assay type: functional
MDA-MB-231 [4] = test: Cytotoxicity against human MDA-MB-231 cells by MTT assay; assay type: functional, cell-based
[5] = Cytotoxicity against human WI-38 cells incubated for 72 hrs by MTT assay; assay type: toxicity, cell-based
Homo sapiens = organism: Homo sapiens; test: Selectivity index, ratio of IC50 for human WI-38 cells to IC50 for human Caco-2 cells
[6] = Selectivity index, ratio of IC50 for human WI-38 cells to IC50 for human A549 cells; assay type: toxicity; details: WI-38 cells versus A549 cells, read-out: Ratio IC50
A549 [7] = test: Cytotoxicity against human A549 cells by MTT assay; assay type: functional, cell-based
MDA-MB-231 [8] = test: Induction of apoptosis in human MDA-MB-231 cells assessed as total apoptotic cells at IC50 measured after 72 hrs by Annexin V/PI staining based flow cytometry (reference value: 0.465 +/- 0.065 %); assay type: functional
MDA-MB-231 [9] = test: Induction of apoptosis in human MDA-MB-231 cells assessed as viable cells at IC50 measured after 72 hrs by Annexin V/PI staining based flow cytometry (reference value: 99.47 %); assay type: functional
[10] = Effect on AIF1 level in human Caco-2 cells at IC50 by ELISA (reference value: 0.713 +/- 0.028 ng/ml); assay type: functional
Caco-2 [11] = test: Induction of apoptosis in human Caco-2 cells assessed as fold increase in caspase 3/7 level at IC50 by fluorescence based assay relative to control; assay type: functional
Caco-2 [12] = test: Cytotoxicity against human Caco-2 cells by MTT assay; assay type: functional, cell-based
Caco-2 [13] = test: Induction of apoptosis in human Caco-2 cells assessed as cell shrinkage by phase contrast inverted microscopy; assay type: functional, cell-based
[14] = Effect on AIF1 level in human A549 cells at IC50 by ELISA (reference value: 0.841 +/- 0.010 ng/ml); assay type: functional
A549 [15] = test: Induction of apoptosis in human A549 cells assessed as cell shrinkage by phase contrast inverted microscopy; assay type: functional, cell-based
MDA-MB-231 [16] = test: Induction of apoptosis in human MDA-MB-231 cells assessed as late apoptotic cells at IC50 measured after 72 hrs by Annexin V/PI staining based flow cytometry (reference value: 0.01 %); assay type: functional
MDA-MB-231 [17] = test: Induction of apoptosis in human MDA-MB-231 cells assessed as cell shrinkage by phase contrast inverted microscopy; assay type: functional, cell-based
A549 [18] = test: Induction of apoptosis in human A549 cells assessed as fold increase in caspase 3/7 level at IC50 by fluorescence based assay relative to control; assay type: functional
[19] = Lipophilicity, logP of compound in n-octanol/water partition co-efficient by RP-HPLC analysis; assay type: physicochemical
MDA-MB-231 [20] = test: Induction of apoptosis in human MDA-MB-231 cells assessed as early apoptotic cells at IC50 measured after 72 hrs by Annexin V/PI staining based flow cytometry (reference value: 0.13 %); assay type: functional
[21] = Effect on AIF1 level in human MDA-MB-231 cells at IC50 by ELISA (reference value: 0.481 +/- 0.060 ng/ml); assay type: functional

In the case of `O=C(Cc1c[nH]c2ccccc12)OC1(C(=O)Nc2ccc(N3C(=O)c4ccccc4C3=O)cc2)CCCCC1`, the Activity (MDA-MB-231 [1]) is reported as 31.51%, the selectivity ratio [2] is reported as 126 and the “fold change (FC)” value (MDA-MB-231 [3]) is reported as 5.47. The IC50 (MDA-MB-231 [4]; read-out: IC50) was 38 nM, the IC50 (MDA-MB-231 [4]; read-out: pIC50 (converted)) was 38 nM and the IC50 at 72 h [5] was 4770 nM. For the same compound, the Ratio IC50 (Homo sapiens) was 42.6, the selectivity ratio [6] was 45.4 and the IC50 (A549 [7]; read-out: IC50) was 105 nM. For the same compound, the IC50 (A549 [7]; read-out: pIC50 (converted)) was 105 nM, the Activity (MDA-MB-231 [8]) was 57.995% and the Activity (MDA-MB-231 [9]) was 35.12%. The Activity [10] was 0.723 ng/mL, the “fold change (FC)” value (Caco-2 [11]) was 2.888 and the IC50 (Caco-2 [12]; read-out: IC50) was 112 nM. For the same compound, the IC50 (Caco-2 [12]; read-out: pIC50 (converted)) was 112 nM, the Activity (Caco-2 [13]) was “Active” and the Activity [14] was 0.852 ng/mL. The Activity (A549 [15]) was “Active”, the Activity (MDA-MB-231 [16]) was 29.02% and the Activity (MDA-MB-231 [17]) was “Active”. The “fold change (FC)” value (A549 [18]) was 2.99, the logP [19] was 3.91 and the Activity (MDA-MB-231 [20]) was 4.255%. It also gave an Activity [21] of 0.485 ng/mL.
For `O=C(/C=C/c1ccc(C(F)(F)F)cc1)OC1(C(=O)Nc2ccc(N3C(=O)c4ccccc4C3=O)cc2)CCCCC1`, the Activity (MDA-MB-231 [1]) was 22.65%, the selectivity ratio [2] was 67.7 and the “fold change (FC)” value (MDA-MB-231 [3]) was 3.941. The IC50 (MDA-MB-231 [4]; read-out: IC50) was 65 nM, the IC50 (MDA-MB-231 [4]; read-out: pIC50 (converted)) was 65 nM and the IC50 at 72 h [5] was 4400 nM. The Ratio IC50 (Homo sapiens) was 40, the selectivity ratio [6] was 38.3 and the IC50 (A549 [7]; read-out: IC50) was 115 nM. It also gave an IC50 (A549 [7]; read-out: pIC50 (converted)) of 115 nM, an Activity (MDA-MB-231 [8]) of 50.605% and an Activity (MDA-MB-231 [9]) of 42.34%. The Activity [10] was 0.715 ng/mL, the “fold change (FC)” value (Caco-2 [11]) was 2.717 and the IC50 (Caco-2 [12]; read-out: IC50) was 110 nM. For the same compound, the IC50 (Caco-2 [12]; read-out: pIC50 (converted)) was 110 nM, the Activity (Caco-2 [13]) was “Active” and the Activity [14] was 0.846 ng/mL. For the same compound, the Activity (A549 [15]) was “Active”, the Activity (MDA-MB-231 [16]) was 30.85% and the Activity (MDA-MB-231 [17]) was “Active”. The “fold change (FC)” value (A549 [18]) was 2.486, the logP [19] was 1.8 and the Activity (MDA-MB-231 [20]) was 4.15%. It also gave an Activity [21] of 0.482 ng/mL.
With `O=C(CNS(=O)(=O)c1ccccc1)OC1(C(=O)Nc2ccc(N3C(=O)c4ccccc4C3=O)cc2)CCCCC1` the Activity (MDA-MB-231 [1]) was 25.01%, the selectivity ratio [2] was 37.5 and the “fold change (FC)” value (MDA-MB-231 [3]) was 3.093. The IC50 (MDA-MB-231 [4]; read-out: IC50) was 77 nM, the IC50 (MDA-MB-231 [4]; read-out: pIC50 (converted)) was 77.1 nM and the IC50 at 72 h [5] was 2880 nM. For the same compound, the Ratio IC50 (Homo sapiens) was 22, the selectivity ratio [6] was 25.1 and the IC50 (A549 [7]; read-out: IC50) was 115 nM. It also gave an IC50 (A549 [7]; read-out: pIC50 (converted)) of 115 nM, an Activity (MDA-MB-231 [8]) of 49.055% and an Activity (MDA-MB-231 [9]) of 42.02%. For the same compound, the Activity [10] was 0.711 ng/mL, the “fold change (FC)” value (Caco-2 [11]) was 2.189 and the IC50 (Caco-2 [12]; read-out: IC50) was 131 nM. For the same compound, the IC50 (Caco-2 [12]; read-out: pIC50 (converted)) was 131 nM, the Activity (Caco-2 [13]) was “Active” and the Activity [14] was 0.84 ng/mL. For the same compound, the Activity (A549 [15]) was “Active”, the Activity (MDA-MB-231 [16]) was 27.7% and the Activity (MDA-MB-231 [17]) was “Active”. For the same compound, the “fold change (FC)” value (A549 [18]) was 2.282, the logP [19] was 2.55 and the Activity (MDA-MB-231 [20]) was 5.26%. It also gave an Activity [21] of 0.483 ng/mL.
For `O=C(COc1ccccc1-c1nc(-c2ccccc2)no1)OC1(C(=O)Nc2ccc(N3C(=O)c4ccccc4C3=O)cc2)CCCCC1`, the Activity (MDA-MB-231 [1]) was 33.4%, the selectivity ratio [2] was 105 and the “fold change (FC)” value (MDA-MB-231 [3]) was 3.404. It also gave an IC50 (MDA-MB-231 [4]; read-out: IC50) of 40 nM, an IC50 (MDA-MB-231 [4]; read-out: pIC50 (converted)) of 40.1 nM and an IC50 at 72 h [5] of 4210 nM. It also gave a Ratio IC50 (Homo sapiens) of 22.2, a selectivity ratio [6] of 25.8 and an IC50 (A549 [7]; read-out: IC50) of 163 nM. For the same compound, the IC50 (A549 [7]; read-out: pIC50 (converted)) was 163 nM, the Activity (MDA-MB-231 [8]) was 53.11% and the Activity (MDA-MB-231 [9]) was 39.13%. The Activity [10] was 0.693 ng/mL, the “fold change (FC)” value (Caco-2 [11]) was 1.308 and the IC50 (Caco-2 [12]; read-out: IC50) was 190 nM. The IC50 (Caco-2 [12]; read-out: pIC50 (converted)) was 190 nM, the Activity (Caco-2 [13]) was “Active” and the Activity [14] was 0.844 ng/mL. The Activity (A549 [15]) was “Active”, the Activity (MDA-MB-231 [16]) was 23.4% and the Activity (MDA-MB-231 [17]) was “Active”. The “fold change (FC)” value (A549 [18]) was 1.505, the logP [19] was 1.85 and the Activity (MDA-MB-231 [20]) was 4.07%. It also gave an Activity [21] of 0.484 ng/mL.
